Design in all cases: species or system guinea pig
The target of one experiment is T1, neurokinin NK1 receptor (Cavia porcellus, UniProt P30547).
T1 construct: Using healthy guinea pigs (body weight, 350 to 550 g; Hartley male guinea pigs); from tissue; host or cells: live anaesthetised Hartley male guinea pigs (airway, in vivo)
Description: Effect of suppressing substance P-induced airway contraction (in vivo, intratracheal administration). To be noted: guinea pigs, intratracheal administration 60 minutes before 20 μg/kg i.v. SP; AUC of increase in airway pressure over 10 minutes. As for the experimental part: Using healthy guinea pigs (body weight, 350 to 550 g; Hartley male guinea pigs), the effect of suppressing airway contraction induced by substance P (SP), which is an NK1 receptor agonist, was examined by a modified method of Konzett-Roessler (Naunyn-Schmiedebergs Arch. Exp. Pathol. Pharmakol. 195, 71 [1940]) using airway pressure as an indicator.
(§1) A tracheal cannula and a venous cannula were attached to a guinea pig anesthetized with pentobarbital (50 mg/mL solution, 0.40 to 0.50 mL/body, subcutaneous administration). An arterial cannula filled with heparin-containing physiological saline (100 U/mL) was further attached, and blood pressure and heart rate were monitored via an amplifier and an instantaneous heart rate meter. Subsequently, gallamine (20 mg/body, intravenous administration) was administered to terminate spontaneous breathing, and then 10 mL/kg of positive pressure breathing (Ugo-Basile Biological Research Apparatus, Cat. No. 7025) was rapidly performed at 60 times/min. The airway pressure during artificial breathing was detected with a pressure transducer (TP-200T or TP-400T; Nihon Kohden Corporation) attached to a side branch of the tracheal cannula, amplified (AP-601G; Nihon Kohden Corporation), and recorded in a recorder. After the airway pressure, blood pressure, and heart rate were stabilized, 20 μg/kg of SP was intravenously administered from the venous cannula to induce airway contraction, and the airway pressure was measured for the following 10 minutes.
The test substance was dissolved in a 5% glucose solution, a 0.5 mL/kg solution was intratracheally administered with an intratracheal administration apparatus (model 1A-1B; Penn-Century, Inc.) 60 minutes before stimulation with SP.
The AUC of increase in the airway pressure over 10 minutes after administration of SP was determined as the intensity of SP-induced airway contraction and calculated as an ID50 value from the inhibition rate based on the value of the control group (5% glucose solution intratracheal administration group).

The target in the next experiment is T2, neurokinin NK2 receptor (Cavia porcellus, UniProt Q64077).
T2 construct: Using healthy guinea pigs (body weight, 350 to 550 g; Hartley male guinea pigs); from tissue; host or cells: live anaesthetised Hartley male guinea pigs (airway, in vivo)
T2 sequence (Q64077 1-402): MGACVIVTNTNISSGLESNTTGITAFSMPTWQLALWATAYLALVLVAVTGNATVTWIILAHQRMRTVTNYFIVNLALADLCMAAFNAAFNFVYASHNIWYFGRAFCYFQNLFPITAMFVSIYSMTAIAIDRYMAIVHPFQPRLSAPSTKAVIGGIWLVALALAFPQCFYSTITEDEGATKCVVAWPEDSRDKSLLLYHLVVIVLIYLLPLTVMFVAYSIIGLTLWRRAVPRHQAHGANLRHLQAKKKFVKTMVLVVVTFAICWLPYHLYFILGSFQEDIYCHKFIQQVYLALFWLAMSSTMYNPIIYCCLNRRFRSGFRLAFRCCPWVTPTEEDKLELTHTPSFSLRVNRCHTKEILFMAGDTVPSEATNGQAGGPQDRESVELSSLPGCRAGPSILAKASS
Description: Effect of suppressing neurokinin A-induced airway contraction (in vivo, intratracheal administration). As to conditions: guinea pigs, intratracheal administration 60 minutes before 4 μg/kg i.v. NKA; AUC of increase in airway pressure over 10 minutes. As to the method: Using healthy guinea pigs (body weight, 350 to 550 g; Hartley male guinea pigs), the effect of suppressing airway contraction induced by neurokinin A (NKA), which is an NK2 receptor agonist, was examined by a modified method of Konzett-Roessler (Naunyn-Schmiedebergs Arch. Exp. Pathol. Pharmakol. 195, 71 [1940]) using airway pressure as an indicator.
as §1, with “and” for “and then”, “stabilized, 4” for “stabilized, 20”, “of NKA” for “of SP”
The test substance was dissolved in a 5% glucose solution, and a 0.5 mL/kg solution was intratracheally administered with an intratracheal administration apparatus (model 1A-1B; Penn-Century, Inc.) 60 minutes before stimulation with NKA.
The AUC of increase in the airway pressure over 10 minutes after administration of NKA was determined as the intensity of NKA-induced airway contraction and calculated as an ID50 value from the inhibition rate based on the value of the control group (5% glucose solution intratracheal administration group).

The subject of the next experiment is muscarine M3 receptor. Description: Effect of suppressing methacholine-induced airway contraction (in vivo, intratracheal administration). To be noted: guinea pigs, intratracheal administration 60 minutes before 30 μg/kg i.v. methacholine; AUC of increase in airway pressure over 10 minutes. As to the method:
Using healthy guinea pigs (body weight, 350 to 550 g; Hartley male guinea pigs), the effect of suppressing airway contraction induced by methacholine, which is a muscarine receptor agonist, was examined by a modified method of Konzett-Roessler (Naunyn-Schmiedebergs Arch. Exp. Pathol. Pharmakol. 195, 71 [1940]) using airway pressure as an indicator.
as §1, with “mg/mL of” for “mg/mL”, “stabilized, 30” for “stabilized, 20”, “of methacholine” for “of SP”
A test substance was dissolved in 5% glucose solution, and a 0.5 mL/kg solution was administered intratracheally with an intratracheal administration apparatus (model 1A-1B; Penn-Century, Inc.) 60 minutes before stimulation with methacholine.
The AUC of increase in the airway pressure over 10 minutes after administration of methacholine was measured as the intensity of methacholine-induced airway contraction and calculated as an ID50 value from the inhibition rate based on the value of the control group (a 5% glucose solution intratracheal administration group).

Experimental findings from patent publication US8476253B2, “Amide derivative” (Daiichi Sankyo Company, Limited, priority 2009, dated 2013) are described below.

T1 sequence (P30547 whole entry): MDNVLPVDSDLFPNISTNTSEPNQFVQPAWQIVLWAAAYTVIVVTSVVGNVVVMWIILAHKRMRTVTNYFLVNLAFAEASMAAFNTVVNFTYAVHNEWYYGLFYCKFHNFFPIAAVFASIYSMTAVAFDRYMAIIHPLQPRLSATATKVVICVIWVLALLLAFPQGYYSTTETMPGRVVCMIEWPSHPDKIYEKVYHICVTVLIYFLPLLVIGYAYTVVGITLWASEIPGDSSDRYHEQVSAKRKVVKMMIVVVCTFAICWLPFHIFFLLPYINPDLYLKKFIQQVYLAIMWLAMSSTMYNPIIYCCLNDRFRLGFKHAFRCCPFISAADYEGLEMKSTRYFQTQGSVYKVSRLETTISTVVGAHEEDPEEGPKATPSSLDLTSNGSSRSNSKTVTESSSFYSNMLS

On to `CN(CCN1CCC(OC(=O)Nc2ccccc2-c2ccccc2)CC1)C(=O)CCCCCCNc1ccc(C(=O)N(C)CCCN(C)C(=O)CO[C@H]2Cc3ccccc3C23CCN(CC[C@@]2(c4ccc(F)cc4)CN(C(=O)c4cc(C(F)(F)F)cc(C(F)(F)F)c4)CO2)CC3)cc1.Cl.Cl.Cl` [Example 39], for which the values for the ID50 on neurokinin NK1 receptor, at neurokinin NK2 receptor and in the experiment on muscarine M3 receptor were 38.8 µg/kg, 33.6 µg/kg and 55.9 µg/kg, respectively.
